Assays:
T-cells = assay: Cell survival / viability (sub-G1 DNA, membrane integrity, propidium iodide exclusion); type: cell-based, human
Description: Cells are stimulated by three different methodologies 1) Dynabeads (M-450) covalently coupled to anti-CD3 (OKT-3) and anti-CD28 (9.3) antibodies (3×28 beads) according to the manufacturer's instructions (Dynal), 3 beads/cell, 2) Ionomycin (Calbiochem, La Jolla, Calif.) (100 ng/ml) and phorbol 12-myristate-13-acetate (PMA) (Calbiochem) (10 ng/ml), 3) allogeneic dendritic cells (25,000 dendritic cells/200,000 CD4 cells). All cells are stimulated at a concentration of 1×10^6 cells/ml. Cells are incubated with compounds of structure (I) (e.g., FR901228) (NCI, Bethesda, Md.) for 1 to 2 hours prior to stimulation as outlined above. Proliferation assays are conducted in quadruplicate in 96 well flat-bottom plates. Cells are stimulated at 1×10^6 cells/ml in a final volume of 200 μl. Proliferation is measured by MTT assay (MTT assay kit, Chemicon International Inc., Temecula, Calif.) at day 3 (stimulation method 1 and 2) or at day 6 (stimulation method 3), and results are presented as mean value of quadruplicates. PBL cultures or purified CD4 cell cultures are stimulated with 3×28 beads, ionomycin/PMA or allogenic dendritic cells. […] Further, […] cell survival is not affected by FR901228, as assessed by sub-G1 DNA measurement and integrity of the cell membrane (FIG. 5D). […]

[1] = test system: IL-2 production by activated CD4 cells; assay: IL-2 ELISA of supernatants; type: cell-based, human; details: ELISA after 24 h of 3×28 bead stimulation of purified CD4 cells; FIG. 6
Description: Cells are prepared as described above. Supernatants from cells stimulated 24 h are subjected to an IL-2 or TNF-α enzyme linked immunosorbant assay (ELISA) according to the manufacturer's instructions (Biosource International, Sunnyvale, Calif.).
To study the mechanism behind FR901228 inhibition of CD4 cell proliferation, IL-2 and TNF-α production by activated CD4 cells was analyzed. […] The reason for this difference is currently unknown.

CD154 on CD4 cells = assay: CD154 expression on CD4 cells with or without IL-2; type: cell-based, human; details: 20 ng/ml added day three; 3×28 beads and/or 20 units/ml IL-2; read day 4; FIG. 9
Description: The effect of FR901228 on the induction of the CD154 activation marker on CD4 cells is studied. In this regard, cells are labeled with FITC-coupled anti-human CD4 Ab (Immunotech, Fullerton, Calif.), PE-coupled anti-human CD154 Ab (Becton Dickinson, Fullerton, Calif.), or FITC- or PE-coupled IgG1 isotype control Ab. Cells, 2×10^5 are labeled for 20 minutes at 4° C. with 2 μl of each antibody in a final volume of 30 μl, washed and resuspended in 1% parformaldehyde (Sigma, St. Louis, Mo.). The cells are stimulated for four days in the presence of 3×28 beads and/or 20 units/ml IL-2 or an anti-IL-2 antibody at day three, FR901228 is added to the culture at a concentration of 20 ng/ml. On day 4, mean fluorescence intensity is measured by flow cytometry.

CD154 transcript = assay: RT-PCR of the CD154 transcript; type: cell-based; details: 18 hours of stimulation with 3×28 beads; data not shown
Description: In separate experiments, RT-PCR of the CD154 transcript was carried out after 18 hours of stimulation with 3×28 beads and various amounts of FR901228. […] Experiments were also conducted using CD4 cells incubated with anti-sense constructs of c-myc. After stimulation by 3×28 beads for twenty-four hours, the anti-sense c-myc construct reduced CD154 expression as measured by flow cytometry by about 50% as compared to controls including:no construct, sense or transfection with a scrambled c-myc construct (data not shown). Accordingly, FR901228 and like compounds may target the activity of c-myc and its induction of CD154 as one mechanism of immune suppression.

NOD mice = assay: Diabetes onset in NOD mice; type: in vivo; details: 0.5 mg/kg i.p. every other day; ten NOD animals
Description: FR901228 was dissolved in 10% DMSO in PBS and were administered i.p. to NOD or NODSCID mice every other day. Controls contained only the DMSO excipient (10% DMSO in PBS). […] 0.5 mg/kg of FR901228 was administered at each treatment to twenty animals (ten NOD animals and ten NODSCID animals). Every two weeks the number of mice in each treatment group that had become diabetic was evaluated by measuring blood glucose levels using a glucometer at bi-weekly intervals. A reading of more than 200 mg/dl of blood glucose on two consecutive observations was considered indicative of frank diabetes.

**Q.** C/C=C1\NC(=O)[C@H]2CSSCC/C=C/[C@H](CC(=O)N[C@H](C(C)C)C(=O)N2)OC(=O)[C@H](C(C)C)NC1=O [FR901228] was tested. Which “cell survival by sub-G1 DNA measurement and integrity of the cell membrane” value (T-cells; FIG. 5D) did it give?
**A.** The value was “not affected”.

**Q.** What about the “cell viability by propidium iodide (PI) exclusion” value (T-cells; concentrations up to 100 ng/ml) of the same compound?
**A.** Its value is “not significantly affected”.

**Q.** What about the “lowest concentration that markedly inhibits IL-2 production” value [1] of the same compound?
**A.** Its value is 10 ng/mL.

**Q.** And the “CD154 expression in presence or absence of IL-2” value (CD154 on CD4 cells)?
**A.** The value was “suppression of CD154 expression”.

**Q.** What about the “levels of CD154 expression by RT-PCR” value (CD154 transcript) of the same compound?
**A.** Its value is “reduced levels of CD154 expression with increasing amounts”.

**Q.** And the “development of frank diabetes during the 18 week study” value (NOD mice)?
**A.** The value was “no NOD mouse treated with the compound developed frank diabetes”.
